Results published in PubChem BioAssay AID1963858 (Molecular Pharmacology Branch, DTP, NCI, 2024).

System: HOP-62 multicell spheroids with HUVEC/MSC, viability
Assay: Anticancer human tumor HOP-62 cell line growth inhibition [KRAS2];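 further: viability read after a week of compound exposure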;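 on viability, T/C: 100% = DMSO vehicle-treated spheroids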
Settings: for IC50: curve of first compound; for viability, T/C: stronger effect = lower value
Procedure, shortened: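 KRAS-mutant tumor cells were grown as spheroids with HUVEC endothelial cells and human MSCs as stroma. Targeted agents were tested alone and with KRAS pathway inhibitors. Doses started at or near clinical Cmax, or 10 microM, descending half-log.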

[1] = second compound 0.1 µM, first compound 0.0316 µM
[2] = second compound 0.1 µM, first compound 0.1 µM
[3] = second compound 0.1 µM, first compound 0.316 µM
[4] = second compound 0.1 µM, first compound 1 µM
[5] = second compound 0.1 µM, first compound 3.16 µM
[6] = second compound 0.1 µM, first compound 10 µM
[7] = second compound 0.316 µM, first compound 0.0316 µM
[8] = second compound 0.316 µM, first compound 0.1 µM
[9] = second compound 0.316 µM, first compound 0.316 µM
[10] = second compound 0.316 µM, first compound 1 µM
[11] = second compound 0.316 µM, first compound 3.16 µM
[12] = second compound 0.316 µM, first compound 10 µM
[13] = second compound 1 µM, first compound 0.0316 µM
[14] = second compound 1 µM, first compound 0.1 µM
[15] = second compound 1 µM, first compound 0.316 µM
[16] = second compound 1 µM, first compound 1 µM
[17] = second compound 1 µM, first compound 3.16 µM
[18] = second compound 1 µM, first compound 10 µM
[19] = second compound 3.16 µM, first compound 0.0316 µM
[20] = second compound 3.16 µM, first compound 0.1 µM
[21] = second compound 3.16 µM, first compound 0.316 µM
[22] = second compound 3.16 µM, first compound 1 µM
[23] = second compound 3.16 µM, first compound 3.16 µM
[24] = second compound 3.16 µM, first compound 10 µM
[25] = second compound 10 µM, first compound 0.0316 µM
[26] = second compound 10 µM, first compound 0.1 µM
[27] = second compound 10 µM, first compound 0.316 µM
[28] = second compound 10 µM, first compound 1 µM
[29] = second compound 10 µM, first compound 3.16 µM
[30] = second compound 10 µM, first compound 10 µM

Row | SMILES | IC50 (second compound 0.1 µM) | IC50 (second compound 0.316 µM) | IC50 (second compound 1 µM) | IC50 (second compound 3.16 µM) | viability, T/C [1] | viability, T/C [2] | viability, T/C [3] | viability, T/C [4] | viability, T/C [7] | viability, T/C [8] | viability, T/C [9] | viability, T/C [10] | viability, T/C [13] | viability, T/C [14] | viability, T/C [15] | viability, T/C [16] | viability, T/C [19] | viability, T/C [20] | viability, T/C [21] | viability, T/C [22] | further results
1 | COc1cc(Nc2ncc3c(n2)-c2ccc(Cl)cc2C(c2c(F)cccc2OC)=NC3)ccc1C(=O)O + COc1cc2nc(C)nc(NC(C)c3cc(N)cc(C(F)(F)F)c3)c2cc1OC1CCOC1 | 237 nM | 124 nM | < 31.6 nM | < 31.6 nM | 58% | 61.3% | 43.1% | 39.1% | 53.7% | 50% | 44% | 41.8% | 44.8% | 42.4% | 35.7% | 30.5% | 35.5% | 31.4% | 28.8% | 25.1% | IC50 (second compound 10 µM): < 31.6 nM; viability, T/C [5]: 25.6%; viability, T/C [6]: 19.1%; viability, T/C [11]: 23.5%; viability, T/C [12]: 16.1%; viability, T/C [17]: 23.8%; viability, T/C [18]: 16.7%; viability, T/C [23]: 19.7%; viability, T/C [24]: 13.2%; viability, T/C [25]: 32.8%; viability, T/C [26]: 28.6%; viability, T/C [27]: 30.9%; viability, T/C [28]: 29.1%; viability, T/C [29]: 18%; viability, T/C [30]: 8.97%
2 | CCNC(=O)CC1N=C(c2ccc(Cl)cc2)c2cc(OC)ccc2-n2c(C)nnc21 (centres undefined) + CC1OCC2(CCN(c3cnc(Sc4ccnc(N)c4Cl)c(N)n3)CC2)C1N | 250 nM | 200 nM | 136 nM | 50.8 nM | 103% | 74.5% | 45.2% | 27.6% | 96.2% | 65.5% | 40.9% | 25.1% | 75.9% | 55.6% | 34.5% | 19.8% | 60% | 35.5% | 25.9% | 21.2% | IC50 (second compound 10 µM): < 31.6 nM; viability, T/C [5]: 28.6%; viability, T/C [6]: 28.1%; viability, T/C [11]: 24.3%; viability, T/C [12]: 23.6%; viability, T/C [17]: 22.1%; viability, T/C [18]: 19.7%; viability, T/C [23]: 16.1%; viability, T/C [24]: 15.3%; viability, T/C [25]: 32.4%; viability, T/C [26]: 21.7%; viability, T/C [27]: 18.6%; viability, T/C [28]: 11.5%; viability, T/C [29]: 11.7%; viability, T/C [30]: 9.82%
3 | CCNC(=O)CC1N=C(c2ccc(Cl)cc2)c2cc(OC)ccc2-n2c(C)nnc21 (centres undefined) + C=CC(=O)N1CCN(c2nc(=O)n(-c3c(C)ccnc3C(C)C)c3nc(-c4c(O)cccc4F)c(F)cc23)C(C)C1 | 74.2 nM | 72.7 nM | 66.1 nM | 129 nM | 67.2% | 42.7% | 33.2% | 22.6% | 71.2% | 41.1% | 30.1% | 24.9% | 60.6% | 45% | 32.5% | 24.6% | 71.4% | 53.6% | 36.8% | 23.3% | IC50 (second compound 10 µM): < 31.6 nM; viability, T/C [5]: 19.3%; viability, T/C [6]: 19.4%; viability, T/C [11]: 21.9%; viability, T/C [12]: 20.4%; viability, T/C [17]: 23%; viability, T/C [18]: 19.8%; viability, T/C [23]: 23.1%; viability, T/C [24]: 19.2%; viability, T/C [25]: 39.2%; viability, T/C [26]: 36.9%; viability, T/C [27]: 25.3%; viability, T/C [28]: 22.2%; viability, T/C [29]: 17.1%; viability, T/C [30]: 17.4%
4 | COc1cc(Nc2ncc3c(n2)-c2ccc(Cl)cc2C(c2c(F)cccc2OC)=NC3)ccc1C(=O)O | – | – | – | – | – | – | – | – | – | – | – | – | – | – | – | – | – | – | – | – | viability, T/C (compound 0.316 µM): 51% [middle of 5 runs]; viability, T/C (compound 1 µM): 42.8% [middle of 5 runs]; viability, T/C (compound 3.16 µM): 33.8% [middle of 5 runs]; viability, T/C (compound 10 µM): 20.9% [middle of 5 runs]
5 | CCN1CCN(Cc2ccc(Nc3ncc(F)c(-c4cc(F)c5nc(C)n(C(C)C)c5c4)n3)nc2)CC1 + CC1OCC2(CCN(c3cnc(Sc4ccnc(N)c4Cl)c(N)n3)CC2)C1N | > 1000 nM | 370 nM | 67.5 nM | < 3.16 nM | 87.1% | 83.7% | 75.4% | 50.8% | 73.1% | 73% | 49% | 37.2% | 53% | 42.1% | 42.7% | 25.9% | 33.5% | 27% | 25.7% | 20.1% | IC50 (second compound 10 µM): < 3.16 nM; viability, T/C (second compound 0.1 µM, first compound 0.00316 µM): 104%; viability, T/C (second compound 0.1 µM, first compound 0.01 µM): 93.8%; viability, T/C (second compound 0.316 µM, first compound 0.00316 µM): 96.8%; viability, T/C (second compound 0.316 µM, first compound 0.01 µM): 76.6%; viability, T/C (second compound 1 µM, first compound 0.00316 µM): 65.3%; viability, T/C (second compound 1 µM, first compound 0.01 µM): 73.2%; viability, T/C (second compound 3.16 µM, first compound 0.00316 µM): 33.7%; viability, T/C (second compound 3.16 µM, first compound 0.01 µM): 41.3%; viability, T/C (second compound 10 µM, first compound 0.00316 µM): 32.6%; viability, T/C (second compound 10 µM, first compound 0.01 µM): 27.4%; viability, T/C [25]: 23.4%; viability, T/C [26]: 21.5%; viability, T/C [27]: 23.9%; viability, T/C [28]: 13.9%
6 | CCNC(=O)CC1N=C(c2ccc(Cl)cc2)c2cc(OC)ccc2-n2c(C)nnc21 (centres undefined) + C=CC(=O)N1CCN(c2nc(OCC3CCCN3C)nc3c2CCN(c2cccc4cccc(C)c24)C3)CC1CC#N | 37.4 nM | 437 nM | < 31.6 nM | < 31.6 nM | 51% | 43.6% | 25.1% | 22.7% | 95% | 95.4% | 53.5% | 45.1% | 33.2% | 24.5% | 20.2% | 19.2% | 0.58% | 0.37% | 0.12% | 0.12% | IC50 (second compound 0.0316 µM): 168 nM; viability, T/C (second compound 0.0316 µM, first compound 0.0316 µM): 82.8%; viability, T/C (second compound 0.0316 µM, first compound 0.1 µM): 62.3%; viability, T/C (second compound 0.0316 µM, first compound 0.316 µM): 34.6%; viability, T/C (second compound 0.0316 µM, first compound 1 µM): 33.2%; viability, T/C (second compound 0.0316 µM, first compound 3.16 µM): 27.2%; viability, T/C (second compound 0.0316 µM, first compound 10 µM): 29.3%; viability, T/C [5]: 18.2%; viability, T/C [6]: 20.6%; viability, T/C [11]: 41.5%; viability, T/C [12]: 36.8%; viability, T/C [17]: 16.4%; viability, T/C [18]: 16.1%; viability, T/C [23]: 0.39%; viability, T/C [24]: 0.19%
7 | O=C(c1cc(Cc2n[nH]c(=O)c3ccccc23)ccc1F)N1CCN(C(=O)C2CC2)CC1 + C=CC(=O)N1CCN(c2nc(=O)n(-c3c(C)ccnc3C(C)C)c3nc(-c4c(O)cccc4F)c(F)cc23)C(C)C1 | 39.7 nM | 271 nM | 708 nM | 249 nM | 50.3% | 47.2% | 37.5% | 35.6% | 64% | 61.2% | 45.5% | 40.4% | 59.3% | 54.7% | 53.2% | 49.8% | 58.9% | 50.5% | 48.3% | 47.8% | IC50 (second compound 10 µM): < 31.6 nM; viability, T/C [5]: 27.7%; viability, T/C [6]: 27.4%; viability, T/C [11]: 37.6%; viability, T/C [12]: 29.3%; viability, T/C [17]: 40.8%; viability, T/C [18]: 31.6%; viability, T/C [23]: 42.1%; viability, T/C [24]: 37.4%; viability, T/C [25]: 52%; viability, T/C [26]: 46.1%; viability, T/C [27]: 48.8%; viability, T/C [28]: 46.7%; viability, T/C [29]: 43.2%; viability, T/C [30]: 36.8%
